Data published in article PMC6839601, “Discovery of selective, antimetastatic and anti-cancer stem cell metallohelices via post-assembly modification” (Chemical Science, 2019).

Key:
[1] = test system: HCT116p53+/+; test: Cytotoxicity in HCT116 p53+/+ cells, SRB assay; assay type: cell-based; conditions: Homo sapiens, HCT-116, 72 h, read-out: IC50 HCT116p53+/+
[2] = test system: HCT116.CD133+ cells; test: Inhibition of HCT116.CD133+ colonosphere formation; assay type: cell-based, human; conditions: IC30 values for 6 days
Protocol: (§1) Supplementary Figure 28. Representative images of the HCT116 p53 +/+ colonospheres untreated or treated
(§2) with the investigated compounds at their respective IC 30 values for 72 h. Scale bars: 100 µm.
(§3) colonosphere formation similarly or more effectively than  Δ-[Fe 2L13]Cl4 and salinomycin, a
(§4) well-established CSC-potent agent.
(§5) 10.2 Separation of HCT116.CD133 + and HCT116.CDD133 - cells by magnetically
(§6) activated cell sorting (MACS)
(§7) Positive selection with a single marker of CD133/1 (AC133) was used to enrich for CSCs. The
(§8) cells were harvested by non-enzymatic Cell Stripper (Corning), prepared into single cell
(§9) suspension (30 µm strainer) and counted. Approx. 2×10^7 cells were obtained for cell sorting.
(§10) For a selection of CD133 single positive cells, the cells were stained with the APC-conjugated
(§11) incubated for 20 min at 4-8 °C. The cells were washed with buffer (PBS, 0.5% BSA, pH 7.2;
(§12) prepared by diluting MACS BSA Stock Solution (130-091-376) 1:20 with auto MACS Rinsing
(§13) Solution (130-091-222)) and incubated with Anti-APC Micro Bead (Miltenyi Biotec, 130-090- […]
(§14) three-times in Buffer and analyzed on BD FACSVerse flow cytometer (San Jose, CA, USA);
(§15) the data were analyzed using BD FACSSuite software.
(§16) Supplementary Figure 29. Representative histograms displaying the red fluorescence emitted by anti-CD133- […]
(§17) the medium. The number and size of spheres were determined using an inverted microscope.

[3] = test system: HCT116.CD133- cells; test: Inhibition of HCT116.CD133- colonosphere formation; assay type: cell-based, human; conditions: IC30 values for 6 days
Protocol: as §1, §2, §3, §4, §5, §6, §7, §8, §9, §10, §11, §12, §13, §14, §15, §16, §17

[4] = test system: CSC enriched HCT116.CD133+ cells; test: Cytotoxicity in HCT116.CD133+ cells, SRB assay; assay type: cell-based; conditions: Homo sapiens, 72 h, read-out: IC50 HCT116.CD133+
From the text: Supplementary Figure 30. Growth inhibitory effects in HCT116.CD133- and HCT116.CD133+ cancer cells.
Representative microscopy images of the HCT116.CD133- colonospheres in the absence (a) and presence of […]
salinomycin (b), Δ-[Fe 2L13]Cl4 (c), and Δ-[Fe 2L3a3]Cl4 (d), treated at their respective IC30 values for 6 days (scale […]
bar: 100 µm). Quantification of colonosphere formation from HCT116.CD133+ (e) and HCT116.CD133- (f,g) […]
under the same conditions. Data represent the mean value and SD from three independent experiments. p < 0.01, […]
10.5 Cytotoxicity in HCT116.CD133 + cells, SRB assay
Sorted HCT116.CD133+ cells were plated in 96w culture plates (TPP) (3000 cells per well) […]
and cultured for 3 days to allow cells to recover after sorting and to grow to the desired density.
Cells were then treated with different concentrations of the investigated compounds, […]
with Tris base (pH 10.5). The absorbance at 570 nm was measured using a SUNRISE Tecan […]
absorbance reader (Schoeller). The IC50 values were calculated from curves constructed by […]
plotting cell survival (%) versus drug concentration (μM). The reading values were converted […]
to the percentage of control (% cell survival). Cytotoxic effects were expressed as IC 50. […]
determined with SRB assay. a […]
aThe cells were treated for 72 h. The results are expressed as mean ± SD of three independent experiments. […]

[5] = test system: HCT116 p53+/+ cells; test: Inhibition of HCT116 colonosphere formation; assay type: cell-based, human; conditions: IC30 for 72 h, then 6 days
Protocol: Cells were treated with drug (IC30 concentration) for 72 h, washed, harvested with StemPro Accutase, and plated in ultra-low attachment 96-well culture plates (300 cells per well). Cells were cultured in for 6 days without disturbing the plates or replenishing the medium and the number/size of spheres were determined using an inverted microscope.
10. Anti-cancer stem cell study
10.1 Inhibition of HCT116 colonsphere formation
HCT116 p53+/+ (adherent) cells were treated with  Δ-[Fe 2L13]Cl4,  Δ-[Fe 2L3a3]Cl4 and
salinomycin (at their IC30 values) for 72 h. Cells were then washed with PBS, harvested by
StemProAccutase (Gibco) and plated in ultralow-attachment 96w culture plates (Corning)
(300cells per well). Cells were cultured in DMEM/F12 supplemented with B27 (-vitA, Gibco,
ngmL-1 FGF2 (Sigma, F0291) for 6 days without disturbing the plates and without replenishing
as §17
Supplementary Table 3. Quantification of colonospheres formation in HCT116 p53+/+ cells untreated or treated […]
aThe results are expressed as mean ± SD of three independent experiments.
Supplementary Figure 27. Quantification of colonosphere formation in HCT116 p53+/+ colonospheres untreated
or treated with the investigated compounds at their respective IC30 values for 72 h. The results are expressed as […]

[6] = test system: Na+/K+ ATPase; test: Rubidium based assay for detection of Na+/K+ ATPase activity; set-up: species or system human; conditions: A2780 and HCT116 p53+/+ cell lines, 10 μM for 6 h, then RbCl (5.4 mM) 3 h, ICP-MS
Protocol: Cells were seeded in 6-well plates and incubated for 24 h at 37 °C in an atmosphere of 5% CO2. Cells were then incubated with drug for 6 h, and subsequently the medium was removed and cells were washed with PBS. Cells were then incubated with RbCl (5.4 mM) for 3 h, washed and counted. Rubidium content was determined by ICP-MS.
8.4 Real-time cell growth monitoring
Real-time Cell Analyzer (RTCA) (xCELLigence RTCA SP Instrument, ROCHE) was employed for growth monitoring of cells in the absence and the presence of tested compounds.
After the background of E-plates reading (100 µL medium), the cells were added (5x10^3 cells/well; 50 µL) and grown for 22-28 h. Tested compounds at varying concentrations were then added in 50 µL of media. The impedance was monitored for additional 80 h. An arbitrary unit CI (cell index) is a quantitative measure reflecting the status of the cells (number of attached cells and cell status such as morphology) in an electrode-containing well. Normalized CI at a given time point is given by dividing CI at the time point by CI at a reference time point.
8.5 Rubidium based assay for detection of Na +/K+ ATPase activity
The cells were seeded on 6-well plates (5× 10^5 cells/dish) and incubated overnight. The cells were treated with the investigated compounds for 6 h at 10 µM concentration. […] The cells were then harvested, washed trice with PBS, counted and pelleted. […]

SMILES	IC50 [1]	inhibition of colonosphere formation from HCT116.CD133+ cells [2]	inhibition of colonosphere formation from HCT116.CD133- cells [3]	IC50 [4]	Diameter of colonospheres ([5]; control 96 ± 20)	Spheres/1000cells ([5]; control 224 ± 14)	inhibition of Rb+ uptake [6]
CC[C@@H](C(=O)[C@@H](C)[C@@H](O)[C@H](C)[C@@H]1O[C@@H]([C@@H](CC)C(=O)O)CC[C@@H]1C)[C@H]1O[C@]2(C=C[C@@H](O)[C@]3(CC[C@@](C)([C@H]4CC[C@](O)(CC)[C@H](C)O4)O3)O2)[C@H](C)C[C@@H]1C [Salinomycin, salinomycin]	1480 ± 210 nM	effectively inhibit	do not significantly inhibit	1120 ± 230 nM	76 ± 17 µm	142 ± 14	–
C[C@@H]1O[C@@H](O[C@H]2C[C@@H](O)[C@]3(CO)[C@H]4[C@H](O)C[C@]5(C)[C@@H](C6=CC(=O)OC6)CC[C@]5(O)[C@@H]4CC[C@]3(O)C2)[C@H](O)[C@H](O)[C@H]1O [ouabain]	–	–	–	–	–	–	39–57%
